# Reference: patent publication US8604280B2, “Glyphosate tolerant perennial ryegrass named ‘replay’” (J.R. Simplot Company, priority 2009, dated 2013)
# Test system: perennial ryegrass 96-3047
# Test: Glyphosate applied at termination of the Maryland turf trial, plot survival
# Type: in vivo, Lolium perenne L.
# Settings: glyphosate at 2-quarts per acre; plot 96-3047, Maryland trial, 1999; only plot in the trial not killed
# Description: ‘Replay’ was developed from a greenhouse cross made in 1992 of perennial ryegrass ‘APM’ (registered, Reg. No. CV-185, PI 565096) pollinated by perennial ryegrass ‘Birdie II’ (registered, Reg. No. 133, PI 537452) in Post Falls, Id. Progeny of this cross was planted in a 1992 spaced-plant nursery in Post Falls, Id., and designated as 92-0226. An open-pollinated selection from this population, designated as 93-0736, was harvested and planted in company turf trials in Post Falls, Id., and Poolesville, Md., in 1993. In 1995, plugs of 93-0736 were pulled from the Maryland plot based on the desirable characteristics of dark green color and turf performance, and then planted in a spaced-plant nursery in Post Falls, Id. In 1996, the perennial ryegrass 96-3047 was selected from this population and planted in company turf trials in both Post Falls, Id., and Poolesville, Md.
# In 1999, during the termination of the Maryland trial, 96-3047 was the only plot in the trial that was not killed when glyphosate at the rate of 2-quarts per acre was applied. Survival in the plot was estimated at 30% and plugs were pulled, coded as 99-0089, and 200 plants of 99-0089 were planted in an isolation block in the 1999 Post Falls, Id. nursery.
structure (smiles),measurement,value
"O=C(O)CNCP(=O)(O)O [glyphosate, N-(phosphonomethyl) glycine]",Survival in the plot,~30%
